Where a SMILES comes first, the peptide text is derived from it.
Test system: B. cereus

Compound: CC[C@H](C)[C@H](NC(=O)[C@H](CC(C)C)NC(=O)[C@H](C)NC(=O)[C@@H]1CCCN1C(=O)[C@H](C)NC(=O)[C@@H](NC(=O)[C@H](CCCCN)NC(=O)[C@@H](N)CCCNC(=N)N)C(C)C)C(=O)N[C@@H](CCCCN)C(=O)N[C@@H](CO)C(=O)N[C@@H](Cc1ccccc1)C(=O)N[C@H](C(=O)N[C@@H](Cc1ccccc1)C(=O)N[C@@H](CC(C)C)C(=O)N[C@@H](Cc1ccccc1)C(=O)N[C@@H](CCCCN)C(=O)N[C@@H](Cc1ccccc1)C(=O)N[C@@H](CCCCN)C(=O)N[C@@H](CCCCN)C(=O)NCC(=O)O)C(C)C [Shuffled 51] (H-RKVAPALIKSFVFLFKFKKG-OH; N-terminus and C-terminus assumed)
- MIC B. cereus: + (key: +: MIC greater than 256 ug/mL; ++: MIC greater than 128 ug/mL, not sufficiently soluble to test as 256 ug/mL)

Reference: patent publication US7739055B2, “Methods and systems for generating and evaluating peptides” (priority 2005, dated 2010)
